In BindingDB's records for doi:10.1016/j.bmcl.2021.128376 (Bristol Myers Squibb Research and Development, 2021):

Assay: Inhibition of c-MYC (unknown origin)

| IC50 [nM] | Compound |
| --- | --- |
| 0.6 | Cc1nnn(C)c1-c1ccc2c3ncc(C(C)(C)O)cc3n([C@H](c3ccccc3)C3CCOCC3)c2c1F [US10683290, Example 20] |
| 6.9 | Cc1nnn(C)c1-c1cc2c(cn1)c1ncc(C(C)(C)O)cc1n2[C@H](c1ccccc1)C1CCOCC1 [US9725449, Example 364] |
| 42 | Cc1nnn(C)c1-c1cc2c(cc1Cl)c1ncc(C(C)(C)O)cc1n2[C@H](c1ccccc1)C1CCOCC1 [US10683290, Example 77] |
| 0.2 | Cc1nnn(C)c1-c1ccc2c3ncc(C(C)(C)O)cc3n([C@H](c3ccccc3)C3CCOCC3)c2c1 [US10683290, Example 16] |
| 0.7 | Cc1nnn(C)c1-c1cnc2c3ccc(C(C)(C)O)cc3n([C@H](c3ccccc3)C3CCOCC3)c2c1 [US10112941, Example 54] |
| 3.4 | Cc1nnn(C)c1-c1cc(F)c2c3ncc(C(C)(C)O)cc3n([C@H](c3ccccc3)C3CCOCC3)c2c1 [US10683290, Example 11] |
| 0.8 | Cc1nnn(C)c1-c1cc2c(cc1F)c1ncc(C(C)(C)O)cc1n2[C@H](c1ccccc1)C1CCOCC1 [US10683290, Example 19] |

The next lines start with the compound.

| Compound | IC50 [nM] |
| --- | --- |
| [2H]C([2H])([2H])c1nnn(C)c1-c1cc2c(cc1F)c1ncc(C(C)(C)O)cc1n2[C@H](c1cc(C)on1)C1CCOCC1 | 2.4 |
| [2H]C([2H])([2H])c1nnn(C)c1-c1cc2c(cc1F)c1ncc(C(C)(C)O)cc1n2[C@H](c1ncccc1F)C1CCOCC1 | 1.3 |
| [2H]C([2H])([2H])c1nnn(C)c1-c1cc2c(cc1F)c1ncc(C(C)(C)O)cc1n2[C@@H](CCC)c1ncccc1F | 0.7 |
